The target of data set [1] is BMX (Homo sapiens (Human), UniProt P51813). Description: In house ELISA kinase inhibition assay, BMX. It is filed as biochemical. To be noted: for IC50: in house ELISA; for Selectivity ratio: selectivity for BTK and BMX. The procedure: (§1) BTK inhibition Assay and selectivity Assay The assay was conducted either a by a third party (Reaction Biology Corporation, PA, USA) or in house.
(§2) b) In House Procedure for BTK, BMX, EGFR and ITK:
(§3) Kinase inhibitory activities of compounds were evaluated using the Enzyme-linked immunosorbent assay (ELISA). The kinase enzyme of BTK, BMX, EGFR and ITK were purchased from Carna Bioscience (Kobe, Japan). A total of 10 ng/mL antiphosphotyrosine (PY713) antibody (abcam, Cambridge Science Park, UK) was precoated in 96-well ELISA plates. The kinase enzymes in each reaction well were set to BTK (101.25 ng/mL), BMX (90 ng/mL), EGFR (90 ng/mL) or ITK (120 ng/mL) and incubated with indicated drugs in 1× reaction buffer (50 mmol/L HEPES pH 7.4, 20 mmol/L MgCl2, 0.1 mmol/L MnCl2, 1 mmol/L DTT) containing 20 μmol/L (the final concentration of substrate in ITK reaction was 30 μmol/L) substrate (NH2-[…]-biotin) at 25° C. for 1 h. Then, a total of 3 μmol/L ATP was added and the reaction was continued for 2 h. The products of reaction were transferred into 96-well ELISA plates containing antibody and incubated at 25° C. for 30 min. After incubation, the wells were washed with PBS and then incubated with horseradish peroxidase (HRP)-conjugated streptavidin. The wells were visualized using 3,3′,5,5′-tetramethylbenzidine (TMB), and chromogenic reaction was ended with 2 mol/L H2SO4, the absorbance was read with a multimode plate reader (PerkinElmer, USA) at 450 nm. IC50 values and curve fits were obtained using Prism (GraphPad Software). (Table I-IV)
Background: An ELISA detects its analyte on a solid surface through an enzyme-linked reagent.

The subject of data set [2] is TMD-8. Kind of data set: In-vitro antitumor activity assay (CellTiter-Glo cell antiproliferative activity). It is filed as cell-based. The note with it: Homo sapiens, TMD8, TMD-8 cells, 72 h. The protocol:
In-Vitro Antitumor Activity Assay
Method: Reagent and procedure by Hefei PreceDo pharmaceuticals Co. Ltd.
Cell antiproliferative activity was evaluated by the CellTiter-Glo (Promega, USA) assay. Make 1000× compounds solution in DMSO, add 1 μl 1000× compounds to […] growth medium to make 20× compounds. Dilute cell suspensions in growth medium to desired density and 95 μl were taken to 96-well plate. Add 5 μl 20× compounds into 96-well plate according to the plate map. Final DMSO concentration in each well was 0.1%. Then the cell was incubated at 37° C., 5% CO2 for 72 h. Equilibrate the assay plate to room temperature before measurement. Add 20 μl of CellTiter-Glo© Reagent into each well. Mix contents for 2 minutes on an orbital shaker to induce cell lysis. Incubate at room temperature for 10 minutes to stabilize luminescent signal. Record luminescence using EnVision Multilabel Reader (PerkinElmer). Cell viability (CV %) was calculated relative to vehicle (DMSO) treated control wells using following formula: Cell viability (%)=(RLU compound−RLU blank)/(RLU control−RLU blank)*100%. The IC50 values were calculated using GraphPad Prism 6.0 software, fitting to a 4-parameter equation to generate concentration response curves. All assays were conducted with three parallel samples and three repetitions.
(In ATP-based viability assays light output follows the ATP content of the culture.)

The target of data set [3] is EGFR (Homo sapiens (Human), UniProt P00533). Description: In house ELISA kinase inhibition assay, EGFR. The class given is biochemical. To be noted: for IC50: in house ELISA; for Selectivity ratio: selectivity for BTK and EGFR. The protocol: as §1, §2, §3
EGFR, sequence (P00533 25-1210): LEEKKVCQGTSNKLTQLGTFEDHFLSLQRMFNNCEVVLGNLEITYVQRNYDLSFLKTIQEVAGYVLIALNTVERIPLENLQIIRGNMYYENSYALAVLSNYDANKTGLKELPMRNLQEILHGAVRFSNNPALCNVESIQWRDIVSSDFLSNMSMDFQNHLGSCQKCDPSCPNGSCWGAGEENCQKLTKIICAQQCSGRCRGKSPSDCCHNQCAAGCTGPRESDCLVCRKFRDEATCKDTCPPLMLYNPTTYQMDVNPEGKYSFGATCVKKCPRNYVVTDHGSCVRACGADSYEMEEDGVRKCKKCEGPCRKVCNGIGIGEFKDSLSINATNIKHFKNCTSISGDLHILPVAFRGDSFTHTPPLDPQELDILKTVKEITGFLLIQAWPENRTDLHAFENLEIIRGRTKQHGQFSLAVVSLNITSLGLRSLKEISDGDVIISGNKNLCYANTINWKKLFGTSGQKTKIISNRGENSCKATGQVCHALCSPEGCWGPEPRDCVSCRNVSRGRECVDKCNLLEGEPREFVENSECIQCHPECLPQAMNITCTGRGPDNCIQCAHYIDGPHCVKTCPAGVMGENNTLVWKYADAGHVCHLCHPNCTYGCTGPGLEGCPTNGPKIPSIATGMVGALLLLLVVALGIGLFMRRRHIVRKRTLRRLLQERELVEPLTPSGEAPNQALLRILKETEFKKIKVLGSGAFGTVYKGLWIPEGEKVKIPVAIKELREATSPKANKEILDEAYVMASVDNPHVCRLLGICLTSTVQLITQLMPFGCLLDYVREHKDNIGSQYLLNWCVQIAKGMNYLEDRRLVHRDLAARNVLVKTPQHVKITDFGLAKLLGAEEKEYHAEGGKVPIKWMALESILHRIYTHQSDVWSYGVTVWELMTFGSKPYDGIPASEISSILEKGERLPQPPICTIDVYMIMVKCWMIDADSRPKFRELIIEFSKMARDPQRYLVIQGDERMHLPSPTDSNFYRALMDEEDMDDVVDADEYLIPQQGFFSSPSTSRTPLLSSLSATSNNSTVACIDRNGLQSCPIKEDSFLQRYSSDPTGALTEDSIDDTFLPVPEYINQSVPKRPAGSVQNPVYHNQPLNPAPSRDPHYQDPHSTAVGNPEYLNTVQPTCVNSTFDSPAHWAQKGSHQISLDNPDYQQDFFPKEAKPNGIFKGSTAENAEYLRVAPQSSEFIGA
Data set [4] concerns the target T1, BTK (Homo sapiens (Human), UniProt Q06187). Kind of data set: In house ELISA kinase inhibition assay, BTK. The note with it: footnote b: from in house procedure (ELISA). The class given is biochemical. Put shortly: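 ELISA with biotinylated peptide substrate at 20 μmol/L (ITK 30 μmol/L); kinases preincubated with compound 1 h at 25° C in HEPES pH 7.4, MgCl2, MnCl2, DTT, then 3 μmol/L ATP added for 2 h. Phosphoproduct captured on anti-phosphotyrosine antibody, detected with HRP-streptavidin/TMB at 450 nm; IC50 by curve fit.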

In data set [5] the target is ITK (Homo sapiens (Human), UniProt Q08881). Description: In house ELISA kinase inhibition assay, ITK. To be noted: for IC50: in house ELISA; for Selectivity ratio: selectivity for BTK and ITK. It is filed as biochemical. The protocol:
as §1, §2, §3

A short description of data set [6]: Rat pharmacokinetic assay. The class given is in vivo. The procedure:
Rat Pharmacokinetic Assay
Method: Reagent and Procedure by Hefei PreceDo Pharmaceuticals Co. Ltd.
Male Sprague-Dawley rats with 6-8 weeks of age were purchased from Beijing Vital River Laboratory Animal Technology Co., Ltd. Rats were randomly assigned with three rats per group. A single dose of compound 84 or 85 was administered by tail vein injection in iv group. In po group, compound 84 or 85 was orally. Blood samples (˜0.25 mL) were obtained by orbital venous plexus at 2 min (iv only), 5 min, 15 min, 1 h, 2 h, 4 h, 6 h, 8 h, 12 h and 24 h (po only) post dose. After centrifuged at 4000 rpm for 10 min at 4° C., plasma was collected and stored at −20° C. until determine by LC-MS/MS.

The target of data set [7] is T1, BTK. Description: BTK inhibition assay by Reaction Biology Corporation (33P-ATP, filter-binding). The class given is biochemical. The note with it: footnote a: from Reaction Biology Corporation. The protocol: as §1
a) Reagent and Procedure by Reaction Biology Corporation:
Base Reaction buffer; 20 mM Hepes (pH 7.5), 10 mM MgCl2, 1 mM EGTA, 0.02%. Brij35, 0.02 mg/ml BSA, 0.1 mM Na3VO4, 2 mM DTT, 1% DMSO. Required cofactors were added individually to each kinase reaction. Compound handling: testing compounds were dissolved in 100% DMSO to specific concentration. The serial dilution was conducted by Integra Viaflo Assist in DMSO.
The substrate was prepared in freshly prepared reaction buffer of above and required cofactors were added to the substrate solution. The kinase was delivered to the substrate solution and the mixture was gently mixed. Testing compounds in 100% DMSO was added to the kinase reaction mixture by Acoustic technology (Echo550; nanoliter range) and the new mixture was incubated for 20 min at room temperature. Then ^33P-ATP (Specific activity 10 μCi/μl) was added to the reaction mixture to initiate the reaction and the mixture was incubated for 2 hours at room temperature. The radioactivity was detected by filter-binding method and the kinase activity data was expressed as the percent of remaining kinase activity in test sample compared to vehicle (dimethyl sulfoxide) reaction. IC50 values and curve fits were obtained using Prism (GraphPad Software). The result is outlined in Table-I

Where [8] appears, read: male, Sprague-Dawley, plasma, iv 5 mg/kg.
The mark [9] stands for this setting: male, Sprague-Dawley, plasma, iv 1 mg/kg.

Read-outs that look alike come from different tables or passages of the source.

ITK, sequence (Q08881 whole entry): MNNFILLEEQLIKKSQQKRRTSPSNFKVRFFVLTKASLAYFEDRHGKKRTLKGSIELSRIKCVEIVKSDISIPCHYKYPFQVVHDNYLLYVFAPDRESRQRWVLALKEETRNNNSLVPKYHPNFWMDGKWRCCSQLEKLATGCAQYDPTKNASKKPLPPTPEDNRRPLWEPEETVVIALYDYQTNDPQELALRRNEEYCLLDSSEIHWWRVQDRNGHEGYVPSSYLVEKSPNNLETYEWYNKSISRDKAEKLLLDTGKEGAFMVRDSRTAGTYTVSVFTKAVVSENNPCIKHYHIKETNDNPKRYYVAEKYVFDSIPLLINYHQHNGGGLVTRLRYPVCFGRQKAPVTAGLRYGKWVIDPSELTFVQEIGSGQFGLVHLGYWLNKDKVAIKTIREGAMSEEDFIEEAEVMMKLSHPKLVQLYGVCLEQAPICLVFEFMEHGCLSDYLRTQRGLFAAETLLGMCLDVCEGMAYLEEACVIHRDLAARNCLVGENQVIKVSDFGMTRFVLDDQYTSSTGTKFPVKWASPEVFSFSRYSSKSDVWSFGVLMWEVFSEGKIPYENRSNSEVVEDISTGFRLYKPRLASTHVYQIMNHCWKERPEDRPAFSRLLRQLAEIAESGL
T1 sequence (Q06187 whole entry): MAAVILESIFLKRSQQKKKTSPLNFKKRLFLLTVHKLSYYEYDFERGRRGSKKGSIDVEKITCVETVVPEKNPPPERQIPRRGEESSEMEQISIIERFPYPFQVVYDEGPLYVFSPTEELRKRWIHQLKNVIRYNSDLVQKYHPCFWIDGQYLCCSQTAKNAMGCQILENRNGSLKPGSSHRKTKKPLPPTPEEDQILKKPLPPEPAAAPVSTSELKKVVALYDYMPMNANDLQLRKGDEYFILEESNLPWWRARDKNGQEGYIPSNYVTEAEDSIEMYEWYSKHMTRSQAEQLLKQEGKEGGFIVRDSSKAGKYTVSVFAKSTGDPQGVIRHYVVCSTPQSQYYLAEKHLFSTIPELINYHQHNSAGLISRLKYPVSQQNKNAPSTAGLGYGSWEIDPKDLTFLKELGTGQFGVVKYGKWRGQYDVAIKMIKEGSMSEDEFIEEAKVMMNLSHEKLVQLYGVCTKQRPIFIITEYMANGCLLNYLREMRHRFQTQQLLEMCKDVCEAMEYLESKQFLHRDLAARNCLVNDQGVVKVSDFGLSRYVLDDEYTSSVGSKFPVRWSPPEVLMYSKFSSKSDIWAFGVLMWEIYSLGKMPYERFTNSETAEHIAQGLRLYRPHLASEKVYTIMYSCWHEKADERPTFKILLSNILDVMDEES
BMX, sequence (P51813 whole entry): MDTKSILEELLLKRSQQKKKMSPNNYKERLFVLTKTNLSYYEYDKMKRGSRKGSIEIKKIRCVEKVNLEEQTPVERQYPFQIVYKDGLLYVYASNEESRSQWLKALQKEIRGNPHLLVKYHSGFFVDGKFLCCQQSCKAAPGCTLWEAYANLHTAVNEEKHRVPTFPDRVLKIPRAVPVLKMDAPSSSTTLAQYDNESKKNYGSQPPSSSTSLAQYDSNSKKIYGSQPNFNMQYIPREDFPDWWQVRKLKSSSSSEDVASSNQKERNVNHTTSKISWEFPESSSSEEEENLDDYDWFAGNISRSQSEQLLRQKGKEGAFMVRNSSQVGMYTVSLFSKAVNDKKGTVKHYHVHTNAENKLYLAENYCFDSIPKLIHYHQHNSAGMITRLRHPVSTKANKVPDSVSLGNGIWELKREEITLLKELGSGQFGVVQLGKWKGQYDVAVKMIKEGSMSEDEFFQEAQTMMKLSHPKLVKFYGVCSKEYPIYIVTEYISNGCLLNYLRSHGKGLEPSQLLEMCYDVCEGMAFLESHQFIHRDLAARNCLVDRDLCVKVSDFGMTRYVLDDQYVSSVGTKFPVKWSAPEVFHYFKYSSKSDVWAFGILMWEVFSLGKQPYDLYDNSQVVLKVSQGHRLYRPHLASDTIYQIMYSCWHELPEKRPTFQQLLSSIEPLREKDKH

On to `C=CC(=O)N1CCCC[C@H]1c1nc(-c2ccc(C(=O)Nc3cc(C(F)(F)F)ccn3)cc2)c(C(N)=O)n1N` [Example 84, (S)-2-(1-acryloylpiperidin-2-yl)-1-amino-4-(4-((4-(trifluoromethyl)pyridin-2-yl)carbamoyl)phenyl)-1H-imidazole-5-carboxamide], for which, in data set [1], the IC50 (in general, the point on the concentration scale where inhibition reaches its midpoint) came to 114 nM and the Selectivity ratio is 33.0. In addition, in data set [2], the concentration for half-maximal inhibition (IC50) worked out at 24.5 nM. In addition, in data set [3], the IC50 turned out to be 156 nM and the Selectivity ratio worked out at 45. In data set [4], this molecule had an IC50 of 3.46 nM. In addition, in data set [5], the IC50 amounted to 608 nM and the Selectivity ratio is reported as 175.6. In addition, in data set [6] (iv 5 mg/kg), the CL turned out to be 13.4 mL/min/kg; the T1/2 stood at 1.32 h; the Vd (as a rule, a proportionality between amount in the body and measured concentration, not a real space) was 1.50 L/kg. In addition, in data set [6] (setting [8]), the clearance (commonly the volume of plasma or blood freed of the substance per unit of time) was determined as 13.4 mL/min/kg and the half-life (usually the time needed for the level to fall by half in the phase considered) is 1.32 h. The AUC (in general, concentration integrated over time) in data set [6] (male, Sprague-Dawley, plasma, po 5 mg/kg, read-out: AUC) came out at 2000 ng·h/mL. The Cmax (commonly the peak of the concentration-time curve) in data set [6] (male, Sprague-Dawley, plasma, po 5 mg/kg, read-out: Cmax) is 501 ng/mL. In data set [6] (po 5 mg/kg), this molecule returned an AUC of 1996 ng·h/mL, a maximum concentration (Cmax) of 501 ng/mL, an F of 32.4% and a T1/2 of 1.35 h.
In the case of `CC#CC(=O)N1CCCC[C@H]1c1nc(-c2ccc(C(=O)Nc3cc(C(F)(F)F)ccn3)cc2)c(C(N)=O)n1N` [Example 85, (S)-1-amino-2-(1-(but-2-ynoyl)piperidin-2-yl)-4-(4-((4-(trifluoromethyl)pyridin-2-yl)carbamoyl)phenyl)-1H-imidazole-5-carboxamide], the IC50 in data set [1] turned out to be 789 nM; in data set [2] it was 54.3 nM; in data set [3] it was 11800 nM; in data set [4], 7.29 nM; in data set [5], 30000 nM. Moreover, the values for the Selectivity ratio in data set [1], in data set [3] and in data set [5] were 108.2, 1619 and 4115, respectively. Also, the clearance in data set [6] (setting [9]) stood at 50 mL/min/kg. Further, the half-life in data set [6] (setting [9]) is 1.97 h; in data set [6] (male, Sprague-Dawley, plasma, po 10 mg/kg) it was 2.74 h. Further, the Vd in data set [6] (male, Sprague-Dawley, plasma, iv 1 mg/kg, read-out: Vd) was 8.62 L/kg. Moreover, the AUC in data set [6] (male, Sprague-Dawley, plasma, po 10 mg/kg, read-out: AUC) was found to be 3250 ng·h/mL; in data set [6] (po 10 mg/kg), 3247 ng·h/mL. Moreover, the Cmax in data set [6] (male, Sprague-Dawley, plasma, po 10 mg/kg, read-out: Cmax) was 723 ng/mL. Besides, the F in data set [6] (po 10 mg/kg) is 90.6%. For the same molecule, the T1/2 in data set [6] (po 10 mg/kg) turned out to be 2.74 h.
`CC#CC(=O)N1CCCC[C@H]1c1nc(-c2ccc(C(=O)Nc3cc(I)ccn3)cc2)c(C(N)=O)n1N` [Example 90, (S)-1-amino-2-(1-(but-2-ynoyl)piperidin-2-yl)-4-(4-((4-iodopyridin-2-yl)carbamoyl)phenyl)-1H-imidazole-5-carboxamide]: the IC50 was 226 nM in data set [1]; 35.1 nM in data set [2]; 4680 nM in data set [3]; 10.7 nM in data set [7]; 532 nM in data set [5]. For the same molecule, the Selectivity ratio in data set [1] stood at 21.2; in data set [3] it was 439; in data set [5] it was 49.9.
`CC#CC(=O)N1CCCC[C@H]1c1nc(-c2ccc(C(=O)Nc3cc(-c4ccc(F)cc4)ccn3)cc2)c(C(N)=O)n1N` [Example 92, (S)-1-amino-2-(1-(but-2-ynoyl)piperidin-2-yl)-4-(4-((4-(4-fluorophenyl)pyridin-2-yl)carbamoyl)phenyl)-1H-imidazole-5-carboxamide]: the IC50 is 154 nM in data set [1]; 90.8 nM in data set [2]; 1090 nM in data set [3]; 14.7 nM in data set [7]; 33100 nM in data set [5]. Moreover, the Selectivity ratio in data set [1] is reported as 10.5; in data set [3], 74; in data set [5], 2255.
Take `CC#CC(=O)N1CCCC[C@H]1c1nc(-c2ccc(C(=O)Nc3cc(Cl)ccn3)cc2)c(C(N)=O)n1N` [Example 98, (S)-1-amino-2-(1-(but-2-ynoyl)piperidin-2-yl)-4-(4-((4-chloropyridin-2-yl)carbamoyl)phenyl)-1H-imidazole-5-carboxamide]: the IC50 came to 1080 nM in data set [1]; 37 nM in data set [2]; 3980 nM in data set [3]; 19.4 nM in data set [4]; 16500 nM in data set [5]. Further, the Selectivity ratio in data set [1] worked out at 55.8; in data set [3], 206; in data set [5], 850.

Source of the values: US12291516B2, “Substituted 1-amino-1H-imidazole-5-carboxamide as Bruton's tyrosine kinase inhibitors” (Henan Zhiwei Biomedicine Co., Ltd., priority 2019, dated 2025).
